Measured values: patent publication US20060239913A1, “Peptide conjugate for magnetic resonance imaging” (priority 2003, published 2006)

Columns and labels:
human MMP-3 [1] = target: T1, human MMP-3 (Homo sapiens, UniProt P08254); assay: In vitro MMP inhibition assay (fluorimetric), MMP-3; assay type: biochemical; settings: for % inhibition of control values: mean of duplicate
T1 construct: made in house; host or cells: Sf9 insect cells
Description: (§1) The ability of compound B or the corresponding peptide hydroxamate to inhibit MMP-1, MMP-2 or MMP-3 activity was tested in vitro, on human enzymes. The reaction was based on the formation of a fluorescent compound produced after MMP-cleavage of a substrate (see table 1 for experimental conditions). Briefly, compound B or the peptide alone was added at 3 different concentrations to a buffer containing the MMP to test. For the control sample, the contrast agent or the peptide was replaced by water. After a pre-incubation period of 30 min at 37° C., the fluorescence intensity was measured using a microplate reader (GeminiXS, Molecular Devices), in order to detect any compound interference with the fluorimetric assay (═F1). The enzymatic reaction was then initiated by the addition of the MMP substrate and the mixture was again incubated at 37° C. After a pre-determined time, a second fluorescent measurement was performed (═F2). The enzyme activity was determined by subtracting the signal F1 from F2, and the results were expressed as a percent inhibition of the control enzyme activity.

human MMP-1 [2] = target: T2, human MMP-1 (Homo sapiens, UniProt P03956); assay: In vitro MMP inhibition assay (fluorimetric), MMP-1; assay type: biochemical; settings: for % inhibition of control values: mean of duplicate; for inhibitory activity on MMP-1 (in words): concentration of 1.0E-05 M
T2 construct: endogenous in cells; host or cells: human rheumatoid synovial fibroblast
T2 sequence (P03956 100-469): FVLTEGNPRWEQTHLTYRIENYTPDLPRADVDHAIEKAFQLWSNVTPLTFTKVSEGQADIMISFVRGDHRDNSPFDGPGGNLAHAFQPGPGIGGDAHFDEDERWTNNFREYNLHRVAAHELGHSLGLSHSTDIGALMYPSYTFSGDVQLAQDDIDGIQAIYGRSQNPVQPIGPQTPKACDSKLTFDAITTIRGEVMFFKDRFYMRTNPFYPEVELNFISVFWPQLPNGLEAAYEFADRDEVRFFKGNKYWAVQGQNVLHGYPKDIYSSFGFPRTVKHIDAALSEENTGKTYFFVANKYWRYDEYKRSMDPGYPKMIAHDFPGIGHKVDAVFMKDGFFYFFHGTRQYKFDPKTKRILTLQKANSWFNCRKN
Description: as §1

human MMP-3 [3] = target: T1, human MMP-3; settings: reported value; cited from earlier work
human MMP-1 [4] = target: T2, human MMP-1; settings: reported value; cited from earlier work
human MMP-2 [5] = target: T3, human MMP-2 (Homo sapiens, UniProt P08253); assay: In vitro MMP inhibition assay (fluorimetric), MMP-2; assay type: biochemical; settings: for % inhibition of control values: mean of duplicate; for inhibitory activity on MMP-2 (in words): concentration of 1.0E-05 M
T3 construct: endogenous in cells; host or cells: human rheumatoid synovial fibroblast
T3 sequence (P08253 110-660): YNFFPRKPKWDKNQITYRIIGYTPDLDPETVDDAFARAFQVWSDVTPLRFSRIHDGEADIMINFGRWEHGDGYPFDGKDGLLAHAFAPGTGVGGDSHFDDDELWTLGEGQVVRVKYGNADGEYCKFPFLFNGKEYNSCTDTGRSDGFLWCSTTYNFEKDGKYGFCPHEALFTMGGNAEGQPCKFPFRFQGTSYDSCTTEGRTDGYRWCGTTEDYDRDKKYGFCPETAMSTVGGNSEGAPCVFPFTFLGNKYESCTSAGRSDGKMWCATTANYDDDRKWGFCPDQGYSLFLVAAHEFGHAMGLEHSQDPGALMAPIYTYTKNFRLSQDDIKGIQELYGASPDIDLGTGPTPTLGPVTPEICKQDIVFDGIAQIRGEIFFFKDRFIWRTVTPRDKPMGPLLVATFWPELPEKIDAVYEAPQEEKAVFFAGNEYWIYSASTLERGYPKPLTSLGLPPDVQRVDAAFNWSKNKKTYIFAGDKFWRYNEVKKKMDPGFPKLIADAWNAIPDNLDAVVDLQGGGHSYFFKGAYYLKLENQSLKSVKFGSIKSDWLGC
Description: as §1, with “The” for “The ability of compound B or the corresponding peptide hydroxamate to inhibit MMP-1, MMP-2 or MMP-3 activity was tested in vitro, on human enzymes. The”, “Briefly, compound B or the peptide alone was added at 3 different concentrations to a buffer containing the MMP to test.” left out

human MMP-2 [6] = target: T3, human MMP-2; settings: reported value; cited from earlier work
[7] = tested on: artery slices originating from Watanabe Heritable Hyperlipidemic rabbits; assay: Ex vivo MRI and Gd quantification on WHHL rabbit artery slices; settings: for ex vivo MRI enhancement of the sections / amount of Gd in the sections by ICP-MS (mean value): after 1 h; for ex vivo MRI enhancement of the sections: 3 h or 18 h incubation; for amount of Gd in the sections by ICP-MS (mean value): 3 h or 18 h incubation at 5×10^−4 M Gd, no washing
Source text: Specimen preparation—Watanabe Heritable Hyperlipidemic rabbits (CAP, Olivet, France), which develop hypercholesterolemia and subsequent atherosclerosis due to a genetic deficiency of LDL receptors, were profoundly anaesthetized. After their sacrifice by exsanguination, the arterial tree, comprising the aortic arch with the beginning of the efferent arteries, as well as the thoracic aorta and the supra-renal abdominal aorta, was removed in one block and flushed with heparinized Krebs-Ringer Bicarbonate buffer (pH=7.4) in order to clean any remaining blood. The arterial specimen was then kept frozen at −20° C.; it was gently and extemporarily unfrozen for experimental purpose.
(§2) Finally, both rabbits and human atherosclerotic segments were cut in exactly 3.0 mm-thick sections, before their contact with the contrast medium and ex vivo imaging.
Ex vivo incubation—All the slices were deposited in a 24-wells culture plate. They were then incubated under stirring at 37° C., in 1.0 ml of Krebs-Ringer Bicarbonate buffer (pH=7.4), Gd-DOTA or compound B (at a Gd concentration of 5×10^−4 M). After pre-determined incubation periods of 1 h, 3 h or 18 h, the slices originating from the WHHL rabbits were either immediately imaged, or subjected to a washing during 30 min, 1 h or 3 h (n=3 for each condition) in 10.0 ml of Krebs-Ringer bicarbonate buffer, with the medium being replaced every hour. Regarding human samples, only the protocol which allowed the best differentiation between the compounds (i.e. an incubation period of 18 h, followed by a washing of 30 min) was applied. Afterwards, all the slices were drained and prepared for ex vivo imaging. Further the protocol was applied both regarding to lesional plaques and not lesional plaques specimens.
Specificity testing—To additionally test the specificity of the compound B uptake, we repeated the ex vivo 18 h-incubation with a new set of WHHL rabbit atherosclerotic slices which were previously incubated during 30 min with the hydroxamate peptide, at a 10 times higher concentration than COMPOUND B (i.e. 5×10^−3 M). The samples were subsequently washed during 30 min, as previously described.
Detection of the contrast media by ex vivo imaging and Gd quantification—For ex vivo MRI, the aortic slices were transferred in a new 24-wells plate and embedded in a semi-solid agar-agar gel (0.8% m/v) at room temperature. Images were performed on a 2.35 T MRI system (Biospec, Bruker, Germany), using a 7 cm inner diameter birdcage coil and a 200 mT/m insert gradient. A 3D T1w SNAP sequence was acquired with following parameters (TR/TE/α=20 ms/4.2 ms/75°, Matrix 256*256*16, resolution 235*175*1000 μm^3, duration 21′49″) to have a compromise between resolution, short duration for screening and sections localization. Finally, the gel was removed from the aortic segments and the Gd contained in each precisely weighed sample was quantified by ICP-MS after acidic mineralization.

[8] = tested on: atherosclerotic human sections (carotid artery); assay: Ex vivo MRI and Gd quantification on human carotid endarterectomy sections; settings: 18 h incubation, 30 min washing
Description: Samples of fresh carotid artery were obtained from patients (n=21) undergoing carotid endarterectomy. Specimen consisted of the common carotid artery, as well as the internal and external carotid arteries. The excised plaques were rinsed in ice-cold saline and they were used in the 2-4 hours following surgery.
as §2
Ex vivo incubation—All the slices were deposited in a 24-wells culture plate. […] After pre-determined incubation periods of 1 h, 3 h or 18 h, the slices originating from the WHHL rabbits were either immediately imaged, or subjected to a washing during 30 min, 1 h or 3 h (n=3 for each condition) in 10.0 ml of Krebs-Ringer bicarbonate buffer, with the medium being replaced every hour. […]
Detection of the contrast media by ex vivo imaging and Gd quantification—For ex vivo MRI, the aortic slices were transferred in a new 24-wells plate and embedded in a semi-solid agar-agar gel (0.8% m/v) at room temperature. […] Finally, the gel was removed from the aortic segments and the Gd contained in each precisely weighed sample was quantified by ICP-MS after acidic mineralization.

ApoE-KO mice = assay: Biodistribution assay in ApoE-KO mice (Gd by ICP-MS); assay type: in vivo
Description: (§3) Animals—the tissue distribution of compound B, when compared to Gd-DOTA, was performed in ApoE-KO mice in a 100% C57Bl/6 background. The animals were bred and housed in the Animal Experiment Unit of the Center of Molecular and Vascular Biology, Leuven, Belgium, and had free access to food and water.
(§4) ApoE-KO mice of 11-12 weeks were fed a cholesterol-rich Western-type diet (Tecklad, Madison, USA) for 4 months. This model of atherosclerosis was fully characterized: it contained extensive atherosclerotic plaques in the heart and aortic arch, where the plaques occupied 34% of the total lumen area. […] Biodistribution—After the diet period, animals were matched for sex and body weight. compounfd B or Gd-DOTA was administered intravenously via the tail vein (n=7/compound), at a clinical dose of 100 μmol Gd/kg. 60 min post-injection, the animals were anaesthetized and blood was obtained via eye bleeding. The mice were then subjected to a transcardiac perfusion with heparinized saline, in order to clear the intravascular compartment from any residual circulating contrast agent. Muscle and different organs (kidney, liver) were removed, as well as some artery specimens (aortic arch, carotid arteries, thoracic aorta, abdominal aorta and femoral artery). Finally, an aliquot of the blood sample was centrifuged and the Gd^3+ contained in all the collected samples was quantified by induced coupled plasma—mass spectrometry (ICP-MS) after acidic mineralization.

[9] = as above; assay type: in vivo; settings: C57Bl/6 background, mouse, plasma, iv, 100 μmol Gd/kg, i.v., read-out: half-life of elimination in plasma
Description: as §3, §4

T1 sequence (P08254 100-477): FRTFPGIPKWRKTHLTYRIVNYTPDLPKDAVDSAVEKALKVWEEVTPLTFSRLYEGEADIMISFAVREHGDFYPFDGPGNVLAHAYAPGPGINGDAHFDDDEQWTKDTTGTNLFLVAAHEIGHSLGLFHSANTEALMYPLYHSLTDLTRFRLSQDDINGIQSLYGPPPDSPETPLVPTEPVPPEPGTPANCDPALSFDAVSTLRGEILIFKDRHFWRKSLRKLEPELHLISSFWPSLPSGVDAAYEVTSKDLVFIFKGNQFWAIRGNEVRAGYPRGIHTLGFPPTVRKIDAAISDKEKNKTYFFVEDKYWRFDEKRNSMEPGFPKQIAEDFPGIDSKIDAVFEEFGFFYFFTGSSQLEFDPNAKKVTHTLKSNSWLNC

For “p-aminobenzoyl-Gly-Pro-D-Leu-D-Ala-NHOH [Peptide]”, which “inhibitory activity on MMP-3 (in words)” value (human MMP-3 [1]) is on record?
The value was “no activity”.

And the “% inhibition of control values” (human MMP-3 [1]; MMP-3, test concentration 1.0E−05 M)?
Its value is 8%.

And the “% inhibition of control values” (human MMP-3 [1]; MMP-3, test concentration 1.0E−07 M)?
Its value is 4%.

What about the “% inhibition of control values” (human MMP-3 [1]; MMP-3, test concentration 1.0E−09 M) of the same molecule?
The value was 0%.

And the “% inhibition of control values” (human MMP-1 [2]; MMP-1, test concentration 1.0E−05 M)?
The value was 46%.

And the “% inhibition of control values” (human MMP-1 [2]; MMP-1, test concentration 1.0E−07 M)?
The value was 10%.

What about the “% inhibition of control values” (human MMP-1 [2]; MMP-1, test concentration 1.0E−09 M) of the same molecule?
The value was 9%.

What about the “inhibitory activity on MMP-1 (in words)” value (human MMP-1 [2]) of the same molecule?
Its value is “effective”.

And the IC50 (human MMP-3 [3])?
The IC50 was 150 µM.

What about the IC50 (human MMP-1 [4]) of the same molecule?
The IC50 was 1 µM.

What about the “% inhibition of control values” (human MMP-2 [5]; MMP-2, test concentration 1.0E−04 M) of the same molecule?
The value was 94%.

And the “% inhibition of control values” (human MMP-2 [5]; MMP-2, test concentration 1.0E−05 M)?
The value was 68%.

What about the “% inhibition of control values” (human MMP-2 [5]; MMP-2, test concentration 1.0E−07 M) of the same molecule?
The value was 5%.

And the “inhibitory activity on MMP-2 (in words)” value (human MMP-2 [5])?
Its value is “effective”.

And the IC50 (human MMP-2 [6])?
The IC50 was 30 µM.

For O=C([O-])CN1CCN(CC(=O)[O-])CCN(CC(=O)O)CCN(CC(=O)[O-])CC1.[Gd+3] [Gd-DOTA, gadoteric acid], which “Gd concentration after first washing step (mean value)” value ([7]; after 30 min washing) is on record?
The value was under 0.8 nmol/section.

And the “ex vivo MRI enhancement of the sections” value [7]?
The value was “strong, but diffuse, enhancement”.

What about the “amount of Gd in the sections by ICP-MS (mean value)” value [7] of the same molecule?
Its value is 3-9 nmol/section.

What about the “enhancement of atherosclerotic human sections (MRI ex vivo and Gd quantification)” value [8] of the same molecule?
The value was “not”.

What about the “half-life of elimination in plasma” value (ApoE-KO mice; i.v.) of the same molecule?
Its value is 15 min.

What does the source list for CC(C)C[C@@H](NC(=O)[C@@H]1CCCN1C(=O)CNC(=O)c1ccc(NC(=S)Nc2ccc(CCC(C(=O)O)N3CCN(CC(=O)O)CCN(CC(=O)O)CCN(CC(=O)O)CC3)cc2)cc1)C(=O)N[C@@H](C)C(=O)NO (some centres unmarked) [Compound B]?
inhibitory activity on MMP-1 (in words) (human MMP-1 [2]): effective; ex vivo MRI enhancement after inhibition/competition with free peptide ([7]; 30 min preliminary incubation with free peptide 5×10^−3 M, then 18 h incubation, 30 min washing): very faint enhancement; ex vivo MRI enhancement of the sections [7]: strong but more delineated enhancement; amount of Gd in the sections by ICP-MS (mean value) [7]: 5-11 nmol/section; mean Gd concentration after washing ([7]; incubated 3 h or 18 h, after 30 min and 1 h of washing): 1-8 nmol/section; enhancement of atherosclerotic human sections (MRI ex vivo and Gd quantification) [8]: able to enhance; inhibitory activity on MMP-2 (in words) (human MMP-2 [5]): effective; half-life [9]: 15 min; concentration in the arterial wall compared to Dotarem (ApoE-KO mice; artery specimen, 60 min post-injection, p<0.01): 3-3.5 times
